Species: Rattus norvegicus
Test: DrugMatrix - Regimen: Daily Repeat
Format: toxicity, organism-based, Sprague-Dawley
Design: regimen Daily Repeat, gender Male, age 6-8 weeks
Settings: in vivo, po, route oral GAVAGE, vehicle 100 % WATER; for ABSOLUTE BASOPHIL / ABSOLUTE EOSINOPHIL / ABSOLUTE LYMPHOCYTE / ABSOLUTE MONOCYTE / ABSOLUTE SEGMENTED NEUTROPHIL / BASOPHIL / EOSINOPHIL / ERYTHROCYTE COUNT / HEMATOCRIT / HEMOGLOBIN / LEUKOCYTE COUNT / LYMPHOCYTE / MEAN CORPUSCULAR HEMOGLOBIN / MEAN CORPUSCULAR HEMOGLOBIN CONCENTRATION / MEAN CORPUSCULAR VOLUME / MONOCYTE / NEUTROPHIL / NUCLEATED RED BLOOD CELLS / PLATELET COUNT: tissue Blood; for ALANINE AMINOTRANSFERASE / ALBUMIN / ALKALINE PHOSPHATASE / ASPARTATE AMINOTRANSFERASE / BLOOD UREA NITROGEN / CARBON DIOXIDE / CHLORIDE / CHOLESTEROL / CREATINE PHOSPHOKINASE / CREATININE / GLUCOSE / LACTATE DEHYDROGENASE / LIPASE / PHOSPHORUS / POTASSIUM / SODIUM / TOTAL BILIRUBIN / TOTAL PROTEIN / URIC ACID: tissue Plasma
[1] = 14 mg/kg, 72 h, dose level Low, time 3 day
[2] = 14 mg/kg, 120 h, dose level Low, time 5 day
[3] = 1500 mg/kg, 72 h, dose level High, time 3 day
[4] = 1500 mg/kg, 120 h, dose level High, time 5 day

CN(C)[C@@H]1C(O)=C(C(N)=O)C(=O)[C@@]2(O)C(O)=C3C(=O)c4c(O)cccc4[C@@](C)(O)[C@H]3[C@H](O)[C@@H]12 [OXYTETRACYCLINE]
ABSOLUTE BASOPHIL [1]: 0 CELLS/uL
ABSOLUTE EOSINOPHIL [1]: 0 CELLS/uL
ABSOLUTE LYMPHOCYTE [1]: 14072 CELLS/uL
ABSOLUTE MONOCYTE [1]: 56.33 CELLS/uL
ABSOLUTE SEGMENTED NEUTROPHIL [1]: 1938.33 CELLS/uL
BASOPHIL [1]: 0%
EOSINOPHIL [1]: 0%
ERYTHROCYTE COUNT [1]: 5.7 x10E6/uL
HEMATOCRIT [1]: 36.73%
HEMOGLOBIN [1]: 14.4 G/DL
LEUKOCYTE COUNT [1]: 16.07 x10E3/uL
LYMPHOCYTE [1]: 87.67%
MEAN CORPUSCULAR HEMOGLOBIN [1]: 25.27 pg
MEAN CORPUSCULAR HEMOGLOBIN CONCENTRATION [1]: 39.27 G/DL
MEAN CORPUSCULAR VOLUME [1]: 64.4 fL
MONOCYTE [1]: 0.33%
NEUTROPHIL [1]: 12%
NUCLEATED RED BLOOD CELLS [1]: 0.33 /100WBC
PLATELET COUNT [1]: 1430 x10E3/uL
ALANINE AMINOTRANSFERASE [1]: 53.67 u/L
ALBUMIN [1]: 4.57 G/DL
ALKALINE PHOSPHATASE [1]: 372 u/L
ASPARTATE AMINOTRANSFERASE [1]: 89.33 u/L
BLOOD UREA NITROGEN [1]: 16.33 mg/dL
CARBON DIOXIDE [1]: 26.67 mmol/L
CHLORIDE [1]: 103.67 MEQ/L
CHOLESTEROL [1]: 85.33 mg/dL
CREATINE PHOSPHOKINASE [1]: 211.67 u/L
CREATININE [1]: 0.27 mg/dL
GLUCOSE [1]: 165 mg/dL
LACTATE DEHYDROGENASE [1]: 160 u/L
LIPASE [1]: 10 u/L
PHOSPHORUS [1]: 13.07 mg/dL
POTASSIUM [1]: 7.37 MEQ/L
SODIUM [1]: 146.77 MEQ/L
TOTAL BILIRUBIN [1]: 0.23 mg/dL
TOTAL PROTEIN [1]: 6.17 G/DL
URIC ACID [1]: 1.9 mg/dL
ABSOLUTE BASOPHIL [2]: 0 CELLS/uL
ABSOLUTE EOSINOPHIL [2]: 0 CELLS/uL
ABSOLUTE LYMPHOCYTE [2]: 12168.33 CELLS/uL
ABSOLUTE MONOCYTE [2]: 40 CELLS/uL
ABSOLUTE SEGMENTED NEUTROPHIL [2]: 991.67 CELLS/uL
BASOPHIL [2]: 0%
EOSINOPHIL [2]: 0%
ERYTHROCYTE COUNT [2]: 5.46 x10E6/uL
HEMATOCRIT [2]: 35.43%
HEMOGLOBIN [2]: 14.23 G/DL
LEUKOCYTE COUNT [2]: 13.2 x10E3/uL
LYMPHOCYTE [2]: 92%
MEAN CORPUSCULAR HEMOGLOBIN [2]: 26.03 pg
MEAN CORPUSCULAR HEMOGLOBIN CONCENTRATION [2]: 40.13 G/DL
MEAN CORPUSCULAR VOLUME [2]: 64.83 fL
MONOCYTE [2]: 0.33%
NEUTROPHIL [2]: 7.67%
NUCLEATED RED BLOOD CELLS [2]: 0 /100WBC
PLATELET COUNT [2]: 1202.33 x10E3/uL
ALANINE AMINOTRANSFERASE [2]: 48.67 u/L
ALBUMIN [2]: 4.47 G/DL
ALKALINE PHOSPHATASE [2]: 399.33 u/L
ASPARTATE AMINOTRANSFERASE [2]: 88 u/L
BLOOD UREA NITROGEN [2]: 16.67 mg/dL
CARBON DIOXIDE [2]: 26.33 mmol/L
CHLORIDE [2]: 102 MEQ/L
CHOLESTEROL [2]: 69.33 mg/dL
CREATINE PHOSPHOKINASE [2]: 216.67 u/L
CREATININE [2]: 0.2 mg/dL
GLUCOSE [2]: 150.33 mg/dL
LACTATE DEHYDROGENASE [2]: 200.67 u/L
LIPASE [2]: 9 u/L
PHOSPHORUS [2]: 14.23 mg/dL
POTASSIUM [2]: 7.61 MEQ/L
SODIUM [2]: 147.57 MEQ/L
TOTAL BILIRUBIN [2]: 0.17 mg/dL
TOTAL PROTEIN [2]: 6.43 G/DL
URIC ACID [2]: 2.1 mg/dL
ABSOLUTE BASOPHIL [3]: 0 CELLS/uL
ABSOLUTE EOSINOPHIL [3]: 0 CELLS/uL
ABSOLUTE LYMPHOCYTE [3]: 13408.67 CELLS/uL
ABSOLUTE MONOCYTE [3]: 33.33 CELLS/uL
ABSOLUTE SEGMENTED NEUTROPHIL [3]: 1491.33 CELLS/uL
BASOPHIL [3]: 0%
EOSINOPHIL [3]: 0%
ERYTHROCYTE COUNT [3]: 5.4 x10E6/uL
HEMATOCRIT [3]: 33.33%
HEMOGLOBIN [3]: 13.33 G/DL
LEUKOCYTE COUNT [3]: 14.93 x10E3/uL
LYMPHOCYTE [3]: 90.67%
MEAN CORPUSCULAR HEMOGLOBIN [3]: 24.7 pg
MEAN CORPUSCULAR HEMOGLOBIN CONCENTRATION [3]: 40.03 G/DL
MEAN CORPUSCULAR VOLUME [3]: 61.67 fL
MONOCYTE [3]: 0.33%
NEUTROPHIL [3]: 9%
NUCLEATED RED BLOOD CELLS [3]: 0 /100WBC
PLATELET COUNT [3]: 1276 x10E3/uL
ALANINE AMINOTRANSFERASE [3]: 67 u/L
ALBUMIN [3]: 4.17 G/DL
ALKALINE PHOSPHATASE [3]: 287.67 u/L
ASPARTATE AMINOTRANSFERASE [3]: 90.33 u/L
BLOOD UREA NITROGEN [3]: 14 mg/dL
CARBON DIOXIDE [3]: 30 mmol/L
CHLORIDE [3]: 103 MEQ/L
CHOLESTEROL [3]: 93 mg/dL
CREATINE PHOSPHOKINASE [3]: 208.33 u/L
CREATININE [3]: 0.2 mg/dL
GLUCOSE [3]: 142.33 mg/dL
LACTATE DEHYDROGENASE [3]: 267.67 u/L
LIPASE [3]: 10 u/L
PHOSPHORUS [3]: 13.33 mg/dL
POTASSIUM [3]: 6.65 MEQ/L
SODIUM [3]: 147.53 MEQ/L
TOTAL BILIRUBIN [3]: 0.1 mg/dL
TOTAL PROTEIN [3]: 5.63 G/DL
URIC ACID [3]: 1.47 mg/dL
ABSOLUTE BASOPHIL [4]: 0 CELLS/uL
ABSOLUTE EOSINOPHIL [4]: 0 CELLS/uL
ABSOLUTE LYMPHOCYTE [4]: 10152.67 CELLS/uL
ABSOLUTE MONOCYTE [4]: 25.33 CELLS/uL
ABSOLUTE SEGMENTED NEUTROPHIL [4]: 755.33 CELLS/uL
BASOPHIL [4]: 0%
EOSINOPHIL [4]: 0%
ERYTHROCYTE COUNT [4]: 5.33 x10E6/uL
HEMATOCRIT [4]: 34.37%
HEMOGLOBIN [4]: 13.93 G/DL
LEUKOCYTE COUNT [4]: 10.93 x10E3/uL
LYMPHOCYTE [4]: 92.33%
MEAN CORPUSCULAR HEMOGLOBIN [4]: 26.17 pg
MEAN CORPUSCULAR HEMOGLOBIN CONCENTRATION [4]: 40.53 G/DL
MEAN CORPUSCULAR VOLUME [4]: 64.53 fL
MONOCYTE [4]: 0.33%
NEUTROPHIL [4]: 7.33%
NUCLEATED RED BLOOD CELLS [4]: 0.33 /100WBC
PLATELET COUNT [4]: 1197.33 x10E3/uL
ALANINE AMINOTRANSFERASE [4]: 58 u/L
ALBUMIN [4]: 4.37 G/DL
ALKALINE PHOSPHATASE [4]: 321.33 u/L
ASPARTATE AMINOTRANSFERASE [4]: 83.33 u/L
BLOOD UREA NITROGEN [4]: 16 mg/dL
CARBON DIOXIDE [4]: 26.33 mmol/L
CHLORIDE [4]: 100.33 MEQ/L
CHOLESTEROL [4]: 75.67 mg/dL
CREATINE PHOSPHOKINASE [4]: 222.33 u/L
CREATININE [4]: 0.32 mg/dL
GLUCOSE [4]: 138 mg/dL
LACTATE DEHYDROGENASE [4]: 303 u/L
LIPASE [4]: 11 u/L
PHOSPHORUS [4]: 13.23 mg/dL
POTASSIUM [4]: 6.84 MEQ/L
SODIUM [4]: 146.1 MEQ/L
TOTAL BILIRUBIN [4]: 0.1 mg/dL
TOTAL PROTEIN [4]: 6.3 G/DL
URIC ACID [4]: 1.47 mg/dL

Reference: ChEMBL document CHEMBL3885881, “DrugMatrix”
